Data as given in the supplement of paper PMC10307832.

How the values were obtained:
Assay in all cases: relative viability (nuclei count vs DMSO), 5 days (fraction); higher = more cells survive
Fedratinib + Decitabine = compound: Cc1cnc(Nc2ccc(OCCN3CCCC3)cc2)nc1Nc1cccc(S(=O)(=O)NC(C)(C)C)c1 [Fedratinib] + Nc1ncn([C@H]2C[C@H](O)[C@@H](CO)O2)c(=O)n1 [Decitabine] (partner 2 µM)
Method in brief: (§1)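 Relative viability divides the nuclei count in treated wells by that in vehicle wells. Lung cancer cell lines were seeded in 1536-well plates, dosed by pin tool the next day, and fixed and stained after 5 days in one step with final 0.05% Triton X-100, 1% formaldehyde and 1 ug/ml Hoechst. Dosing was a single drug or a fixed anchor-drug dose plus five library-drug doses (not always all listed) in √10 steps, and values are medians of duplicate plates imaged at 4×.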

Fedratinib + Lapatinib = compound: Cc1cnc(Nc2ccc(OCCN3CCCC3)cc2)nc1Nc1cccc(S(=O)(=O)NC(C)(C)C)c1 [Fedratinib] + CS(=O)(=O)CCNCc1ccc(-c2ccc3ncnc(Nc4ccc(OCc5cccc(F)c5)c(Cl)c4)c3c2)o1 [Lapatinib] (partner 2 µM)
Method in brief: as §1

GW-2580 + Palbociclib = compound: COC1=CC=C(C=C1)COC2=C(C=C(C=C2)CC3=CN=C(N=C3N)N)OC [GW-2580] + CC(=O)c1c(C)c2cnc(Nc3ccc(N4CCNCC4)cn3)nc2n(C2CCCC2)c1=O [Palbociclib] (partner 0.5 µM)
Method in brief: as §1

Fedratinib + Vorinostat = compound: Cc1cnc(Nc2ccc(OCCN3CCCC3)cc2)nc1Nc1cccc(S(=O)(=O)NC(C)(C)C)c1 [Fedratinib] + O=C(CCCCCCC(=O)Nc1ccccc1)NO [Vorinostat] (partner 1 µM)
Method in brief: as §1

Fedratinib + Alpelisib = compound: Cc1cnc(Nc2ccc(OCCN3CCCC3)cc2)nc1Nc1cccc(S(=O)(=O)NC(C)(C)C)c1 [Fedratinib] + Cc1nc(NC(=O)N2CCC[C@H]2C(N)=O)sc1-c1ccnc(C(C)(C)C(F)(F)F)c1 [Alpelisib] (partner 2 µM)
Method in brief: as §1

GW-2580 + Phenformin = compound: COC1=CC=C(C=C1)COC2=C(C=C(C=C2)CC3=CN=C(N=C3N)N)OC [GW-2580] + N=C(N)NC(=N)NCCc1ccccc1 [Phenformin] (partner 250 µM)
Method in brief: as §1

| Cell Line | relative viability (Fedratinib + Decitabine; first compound 0.1 µM) | relative viability (Fedratinib + Decitabine; first compound 0.3162 µM) | relative viability (Fedratinib + Decitabine; first compound 1 µM) | relative viability (Fedratinib + Lapatinib; first compound 0.1 µM) | relative viability (Fedratinib + Lapatinib; first compound 0.3162 µM) | relative viability (Fedratinib + Lapatinib; first compound 1 µM) | relative viability (GW-2580 + Palbociclib; first compound 0.08 µM) | relative viability (GW-2580 + Palbociclib; first compound 0.8 µM) | relative viability (GW-2580 + Palbociclib; first compound 2.53 µM) | relative viability (GW-2580 + Palbociclib; first compound 8 µM) | relative viability (Fedratinib + Vorinostat; first compound 0.1 µM) | relative viability (Fedratinib + Vorinostat; first compound 0.3162 µM) | relative viability (Fedratinib + Vorinostat; first compound 1 µM) | relative viability (Fedratinib + Alpelisib; first compound 0.1 µM) | relative viability (Fedratinib + Alpelisib; first compound 0.3162 µM) | relative viability (Fedratinib + Alpelisib; first compound 1 µM) | relative viability (GW-2580 + Phenformin; first compound 0.08 µM) | relative viability (GW-2580 + Phenformin; first compound 0.8 µM) | relative viability (GW-2580 + Phenformin; first compound 2.53 µM) | relative viability (GW-2580 + Phenformin; first compound 8 µM) |
| --- | --- | --- | --- | --- | --- | --- | --- | --- | --- | --- | --- | --- | --- | --- | --- | --- | --- | --- | --- | --- |
| NCI-H1437 | 0.603 | 0.583 | 0.6 | 0.821 | 0.827 | 0.19 | 0.307 | 0.338 | 0.297 | 0.262 | 0.816 | 0.892 | 0.922 | 0.826 | 0.975 | 0.859 | 0.339 | 0.31 | 0.332 | 0.357 |
| LU99A | 0.936 | 0.968 | 0.892 | 1.08 | 0.988 | 0.321 | 0.476 | 0.444 | 0.356 | 0.376 | 0.454 | 0.513 | 0.41 | 0.55 | 0.518 | 0.387 | 0.773 | 0.823 | 0.647 | 0.808 |
| HCC-827 | 0.292 | 0.336 | 0.318 | 0.187 | 0.181 | 0.22 | 0.571 | 0.531 | 0.479 | 0.467 | 0.862 | 0.841 | 0.75 | 1.04 | 0.95 | 1.02 | 0.451 | 0.442 | 0.436 | 0.447 |
| LK-2 | 0.275 | 0.269 | 0.352 | 0.798 | 0.828 | 0.638 | 0.877 | 0.853 | 0.426 | 0.614 | 0.37 | 0.242 | 0.303 | – | 0.936 | 0.936 | 0.37 | 0.544 | 0.318 | 0.391 |
| HCC-366 | 0.29 | 0.307 | 0.366 | 1.34 | 0.989 | 0.304 | 0.388 | 0.475 | 0.488 | 0.405 | 0.302 | 0.343 | 0.249 | 0.273 | 0.458 | 0.356 | 0.682 | 0.573 | 0.595 | 0.546 |
| BEN | 0.582 | 0.693 | 0.608 | 0.665 | 0.585 | 0.543 | 0.491 | 0.507 | 0.471 | 0.491 | 0.544 | 0.577 | 0.55 | 0.83 | 0.972 | 0.891 | 0.266 | 0.33 | 0.255 | 0.317 |
| NCI-H23 | 0.322 | 0.338 | 0.324 | 1.23 | 1.03 | 0.319 | 0.529 | 0.549 | 0.469 | 0.545 | 0.56 | 0.36 | 0.453 | 0.585 | 0.743 | 0.598 | 0.872 | 0.768 | 0.798 | 0.851 |
| NCI-H1395 | 0.628 | 0.738 | 0.622 | 0.911 | 1.11 | 0.786 | 0.594 | 0.603 | 0.57 | 0.613 | 0.588 | 0.807 | 0.561 | 0.885 | 1 | 1.39 | 0.452 | 0.484 | 0.421 | 0.438 |
| 201T | 0.78 | 0.855 | 0.877 | 1.01 | 0.944 | 0.976 | 0.388 | 0.4 | 0.375 | 0.351 | 0.935 | 0.975 | 0.955 | 1.04 | 0.974 | 0.99 | 0.466 | 0.418 | 0.461 | 0.433 |
| NCI-H2170 | 0.478 | 0.466 | 0.443 | 0.255 | 0.262 | 0.258 | 0.408 | 0.451 | 0.386 | 0.373 | 0.886 | 0.776 | 0.654 | 0.835 | 0.809 | 0.654 | 0.442 | 0.345 | 0.37 | 0.336 |
| NCI-H460 | 0.556 | 0.495 | 0.232 | 1.45 | 0.956 | 0.855 | 0.147 | 0.339 | 0.146 | 0.248 | 1.14 | 0.768 | 0.736 | 0.536 | 0.581 | 0.259 | 0.713 | 0.576 | 0.494 | 0.528 |
| NCI-H661 | 0.566 | 0.54 | 0.423 | 0.471 | 0.496 | 0.44 | 0.414 | 0.434 | 0.388 | 0.326 | 0.785 | 0.833 | 0.716 | 0.835 | 0.452 | 0.629 | 0.269 | 0.282 | 0.282 | 0.271 |
| HCC-15 | 0.507 | 0.738 | 0.533 | 0.879 | 0.876 | 0.446 | 0.82 | 0.814 | 0.706 | 0.56 | 0.875 | 0.824 | 0.845 | 0.746 | 0.793 | 0.758 | 0.537 | 0.486 | 0.426 | 0.515 |
| ABC-1 | 0.976 | 1.09 | 1.01 | 1.28 | 1.16 | 1.46 | 0.74 | 0.768 | 0.503 | 0.696 | 0.983 | 1.06 | 0.888 | 0.979 | 0.994 | 1.12 | 0.236 | 0.226 | 0.234 | 0.224 |
| EPLC-272H | 0.312 | 0.393 | 0.344 | 0.958 | 1.01 | 0.119 | 0.317 | 0.337 | – | 0.313 | 0.547 | 0.375 | 0.335 | 1.05 | 0.915 | 0.914 | 0.272 | 0.339 | – | 0.354 |
